# Key:
# Jurkat T cells = assay: Growth and cell surface markers of transduced Jurkat T cells; details: CD4, CXCR4, CD11a, CD18, ICAM3, MHC-I
# HIV-1NL4-3-GFP-IRES-Nef = assay: Spreading infection after electroporation of proviral DNA into Jurkat T cell lines; format: cell-based
# From the text: Studies were designed to see whether a similar system could be exploited in order to select for a T5Cyp-resistant virus. One approach was to introduce HIV-1NL4-3-GFP-IRES-Nef proviral DNA into Jurkat T cell lines expressing T5 or control by electroporation, to ensure that spreading infection was initiated by cell associated virus in the absence of free virus. […] Again no T5Cyp-resistant HIV-1 could be derived in this experimental setting.
# HIV-1-G89V = HIV-1-G89V CA mutant vector challenge of CRFK cells; format: cell-based
# From the text: Most HIV-1 plasmids and vectors have been described previously (Berthoux et al., 2004). pNL4-3 contains a complete infectious HIV-1 provirus. pNL4-3-R5 bears the V3 loop of the CCR5-tropic 92TH014-2 HIV-1 strain (Papkalla et al., 2002). To generate pNL4-3-GFP-IRES-Nef, enhanced green fluorescent protein (eGFP) and the ECMV (encephalomyocarditis virus) IRES (internal ribosome entry site) were inserted upstream of nef pNLΔenvGFP is pNL4-3 with an env-inactivating mutation and eGFP in place of nef. CSGW is an HIV-1 vector expressing eGFP under the control of the spleen focus forming virus (SFFV) promoter. pFUPI, was engineered from pFUW (Lois et al., 2002) and uses the ubiquitin promoter to drive expression of a puromycin resistance cassette followed by ECMV IRES-T5. pAIG uses the SFFV promoter to drive expression of T5 followed by IRES-eGFP. In pscALPS, the SFFV promoter drives expression of T5 and the human CypA promoter drives expression of eGFP. For three-component vector production, HIV-1 gag and pol were expressed using either psPAX2, p8.9NΔSB, p8.9NΔSB-G89V, or p8.9NΔSB-V86P/H87Q/I91V/M96I. p8.9NΔSB-V86P/H87Q/I91V/M96I is p8.9NΔSB with the V86P/H87Q/I91V/M96I mutation (Chatterji et al., 2005) introduced in CA. […] For biochemistry, hT5Cyps were cloned into the p3xFLAG-CMV-7.1 expression vector (Sigma) and HIV-1 CA was expressed as a GST-fusion using the EF1α promoter.
# SIVAGMtan = SIVAGMtan GFP vector challenge of CRFK cells expressing T5 proteins; format: cell-based; details: in words
# From the text: Most HIV-1 plasmids and vectors have been described previously (Berthoux et al., 2004). pNL4-3 contains a complete infectious HIV-1 provirus. pNL4-3-R5 bears the V3 loop of the CCR5-tropic 92TH014-2 HIV-1 strain (Papkalla et al., 2002). To generate pNL4-3-GFP-IRES-Nef, enhanced green fluorescent protein (eGFP) and the ECMV (encephalomyocarditis virus) IRES (internal ribosome entry site) were inserted upstream of nef pNLΔenvGFP is pNL4-3 with an env-inactivating mutation and eGFP in place of nef. […] For biochemistry, hT5Cyps were cloned into the p3xFLAG-CMV-7.1 expression vector (Sigma) and HIV-1 CA was expressed as a GST-fusion using the EF1α promoter.
# 2×10^4 adherent cells/well or 8×10^4 suspension cells/well were plated in 48-well plates (Nunc) for challenge with single-cycle GFP reporter vectors that were titered as indicated. GFP synthesis was assessed by flow cytometry 48 hrs post-infection. […] For infection of 10^6 primary CD4^+ T cells or macrophages, 15 ng p24/10^6 cells of a CXCR4- or CCR5-tropic HIV-1NL4-3 stock was used, and infection was monitored by assessing the accumulation of RT activity in the supernatant (Sayah et al., 2004). FACSCalibur, Cellquest Pro (Becton Dickinson), and FlowJo software (Treestar, Inc.) were used to record and analyze fluorescence. […]
# HIV-1 = test system: HIV-1
# Description: Since the objective was to engineer a fully human HIV-1 restriction factor, hCypA was the fused at 10 different positions along the length of hT5α (FIG. 44A).
# 2×10^4 adherent cells/well or 8×10^4 suspension cells/well were plated in 48-well plates (Nunc) for challenge with single-cycle GFP reporter vectors that were titered as indicated. GFP synthesis was assessed by flow cytometry 48 hrs post-infection. For spreading infection, 10^6 Jurkat cells were infected with 1 to 15 ng p24/10^6 cells of HIV-1NL4-3-GFP-IRES-Nef. Cells were split every 3 days, fixed in 0.5% paraformaldehyde/PBS, and assayed for GFP synthesis by flow cytometry. For infection of 10^6 primary CD4^+ T cells or macrophages, 15 ng p24/10^6 cells of a CXCR4- or CCR5-tropic HIV-1NL4-3 stock was used, and infection was monitored by assessing the accumulation of RT activity in the supernatant (Sayah et al., 2004). FACSCalibur, Cellquest Pro (Becton Dickinson), and FlowJo software (Treestar, Inc.) were used to record and analyze fluorescence. 1-5×10^5 events were acquired for analysis. […]
# 2×10^4 adherent cells/well or 8×10^4 suspension cells/well were plated in 48-well plates (Nunc) for challenge with single-cycle GFP reporter vectors that were titered as indicated. GFP synthesis was assessed by flow cytometry 48 hrs post-infection. […]
Substance,growth kinetics and cell surface marker levels vs control vector (Jurkat T cells),course of infection after electroporation of provirus (HIV-1NL4-3-GFP-IRES-Nef),restriction of HIV-1-G89V (HIV-1-G89V),restriction of SIVAGMtan (SIVAGMtan),"HIV-1 restriction activity (HIV-1; in words, Jurkat T cells (b397 also THP-1 monocytes))",magnitude of restriction with CypA knockdown (HIV-1; CypA KD vs Luc KD Jurkat T cells)
"hT5Cyp: human TRIM5α fused at serine 322 to human cyclophilin A, SEQ ID NO:12",grew with the same kinetics and expressed similar levels,the infection was self-limiting,failed to restrict HIV-1-G89V,significantly better than AoT5Cyp at low MOI,activity comparable to AoT5Cyp,–
AoT5Cyp: Aotus (owl monkey) TRIM5-cyclophilin A fusion protein [reference compound],grew with the same kinetics and expressed similar levels,the infection was self-limiting,failed to restrict HIV-1-G89V,restricted all four lentiviruses,–,Equivalent results

# Source: patent US8835617B2, “Polynucleotides encoding a human TRIM-Cyp fusion polypeptide, compositions thereof, and methods of using same” (priority 2008, dated 2014)
